In PubChem BioAssay AID256 (DTP/NCI, 2004) one finds T/C data, which are given here for 17 molecules.

This assay concerns CD2F1 mice, L1210 leukemia ip, survival T/C. As to the kind of experiment: NCI In Vivo Anticancer Drug Screen. Data for tumor model L1210 Leukemia (intraperitoneal) in CD2F1 (CDF1) mice. The settings on record: higher = longer survival. Summed up:
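Vehicle-treated tumor-bearing mice served as controls (C) for compound-treated mice (T). Reported figure is T divided by C.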

Setting [1] is: endpoint: mean survival time, dose: 200.0 mg/kg/injection, schedule: Q01DX001 (ip), vehicle: saline with Tween-80.
The mark [2] stands for this setting: endpoint: mean survival time, dose: 12.5 mg/kg/injection, schedule: Q01DX005 (ip), vehicle: water.
Setting [3] is: endpoint: mean survival time, dose: 25.0 mg/kg/injection, schedule: Q01DX005 (ip), vehicle: water.
The mark [4] stands for this setting: endpoint: mean survival time, dose: 50.0 mg/kg/injection, schedule: Q01DX005 (ip), vehicle: water.
Setting [5] is: endpoint: mean survival time, dose: 100.0 mg/kg/injection, schedule: Q01DX005 (ip), vehicle: water.
The mark [6] stands for this setting: endpoint: mean survival time, dose: 50.0 mg/kg/injection, schedule: Q01DX009 (ip), vehicle: saline with Tween-80.
The mark [7] stands for this setting: endpoint: mean survival time, dose: 100.0 mg/kg/injection, schedule: Q01DX009 (ip), vehicle: saline with Tween-80.
[8] abbreviates: endpoint: mean survival time, dose: 12.5 mg/kg/injection, schedule: Q01DX005 (ip), vehicle: distilled water + Tween-80.
Where [9] appears, read: endpoint: mean survival time, dose: 25.0 mg/kg/injection, schedule: Q01DX005 (ip), vehicle: distilled water + Tween-80.
Setting [10] is: endpoint: mean survival time, dose: 50.0 mg/kg/injection, schedule: Q01DX005 (ip), vehicle: distilled water + Tween-80.
[11] abbreviates: endpoint: mean survival time, dose: 100.0 mg/kg/injection, schedule: Q01DX005 (ip), vehicle: distilled water + Tween-80.
[12] abbreviates: endpoint: mean survival time, dose: 200.0 mg/kg/injection, schedule: Q01DX005 (ip), vehicle: distilled water + Tween-80.
[13] abbreviates: endpoint: mean survival time, dose: 200.0 mg/kg/injection, schedule: Q01DX009 (ip), vehicle: saline with Tween-80.

Several values for one entry are separate records, joined by “and”; a condition that tells them apart may be missing. Identical values can stand only once. Toxic doses and inconclusive results are not listed.

Take `Clc1ccc(C2SC=Cc3ccccc32)cc1` (stereo not drawn): the T/C reads like this: (endpoint: median survival time, dose: 25.0 mg/kg/injection, schedule: Q01DX009 (ip), vehicle: Klucel (hydroxypropylcellulose) (HPC)) 110 % of control; (endpoint: median survival time, dose: 50.0 mg/kg/injection, schedule: Q01DX009 (ip), vehicle: Klucel (hydroxypropylcellulose) (HPC)) 104 % of control; (endpoint: median survival time, dose: 100.0 mg/kg/injection, schedule: Q01DX009 (ip), vehicle: Klucel (hydroxypropylcellulose) (HPC)) 109 % of control; (endpoint: median survival time, dose: 200.0 mg/kg/injection, schedule: Q01DX009 (ip), vehicle: Klucel (hydroxypropylcellulose) (HPC)) 104 % of control.
In the case of `O=C1c2ccccc2C(=O)c2c1cccc2S(=O)(=O)O`, the T/C under setting [1] is 97 % of control.
Consider `COc1ccc2c(ccc3oc([N+](=O)[O-])cc32)c1`, for which the T/C by setting is: (endpoint: median survival time, dose: 6.25 mg/kg/injection, schedule: Q01DX009 (ip), vehicle: saline with Tween-80) 105 % of control; (endpoint: median survival time, dose: 12.5 mg/kg/injection, schedule: Q01DX009 (ip), vehicle: saline with Tween-80) 105 % of control; (endpoint: median survival time, dose: 25.0 mg/kg/injection, schedule: Q01DX009 (ip), vehicle: saline with Tween-80) 105 % of control; (endpoint: median survival time, dose: 50.0 mg/kg/injection, schedule: Q01DX009 (ip), vehicle: saline with Tween-80) 105 % of control; (endpoint: median survival time, dose: 100.0 mg/kg/injection, schedule: Q01DX009 (ip), vehicle: saline with Tween-80) 107 % of control; (endpoint: median survival time, dose: 200.0 mg/kg/injection, schedule: Q01DX009 (ip), vehicle: saline with Tween-80) 92 % of control.
As to `COc1ccc(CN2CCCNCC2)cc1`, the T/C was 95 % of control under setting [2]; 95 % of control under setting [3]; 97 % of control under setting [4]; 101 % of control under setting [5]; 95 % of control (endpoint: mean survival time, dose: 200.0 mg/kg/injection, schedule: Q01DX005 (ip), vehicle: water).
For `COc1cccc(N=Nc2c(N)nc(N)nc2N)c1`, under setting [6], the T/C was 97 % of control.
On to `CCCCCCCCCCCCCCCCCC[N+]1(Cc2ccccc2)CCOCC1`, for which the T/C was 103 % of control (endpoint: mean survival time, dose: 25.0 mg/kg/injection, schedule: Q01DX009 (ip), vehicle: saline with Tween-80); 115 % of control under setting [6]; 91 % of control and 100 % of control under setting [7].
Regarding `O=c1nc(Sc2ccccc2)ccn1C1OC(CO)C(O)C1O` (stereo not drawn), the T/C is, setting by setting: under setting [8], 106 % of control; under setting [9], 103 % of control; under setting [10], 106 % of control; under setting [11], 110 % of control; under setting [12], 118 % of control.
In the case of `CC(C)=C(C)c1ccccc1`, the T/C runs as follows: under setting [6], 103 % of control; under setting [7], 106 % of control; under setting [13], 103 % of control.
As for `C#CC1(OC(=O)Nc2ccc3c(c2)OCO3)CCCCC1`, the T/C runs as follows: (endpoint: mean survival time, dose: 100.0 mg/kg/injection, schedule: Q01DX001 (ip), vehicle: saline with Tween-80) 92 % of control; under setting [1], 86 % of control; (endpoint: mean survival time, dose: 400.0 mg/kg/injection, schedule: Q01DX001 (ip), vehicle: saline with Tween-80) 95 % of control.
As to `c1ccc(-c2nc(-c3nn[nH]n3)c3ccccc3n2)cc1`, the T/C runs as follows: (endpoint: mean survival time, dose: 100.0 mg/kg/injection, schedule: Q01DX001 (ip), vehicle: saline) 89 % of control; (endpoint: mean survival time, dose: 200.0 mg/kg/injection, schedule: Q01DX001 (ip), vehicle: saline) 97 % of control.
Consider `Cc1cn(C2CC3OP(O)(=S)OCC3O2)c(=O)[nH]c1=O` (stereo not drawn), for which the T/C is, setting by setting: (endpoint: mean survival time, dose: 8.7 mg/kg/injection, schedule: Q01DX005 (ip), vehicle: water) 101 % of control; (endpoint: mean survival time, dose: 17.5 mg/kg/injection, schedule: Q01DX005 (ip), vehicle: water) 102 % of control; (endpoint: mean survival time, dose: 35.0 mg/kg/injection, schedule: Q01DX005 (ip), vehicle: water) 101 % of control; (endpoint: mean survival time, dose: 70.0 mg/kg/injection, schedule: Q01DX005 (ip), vehicle: water) 104 % of control.
As for `Cc1ccc(Nc2ncnc3c2ncn3C2OC(CO)C(O)C2O)cc1` (stereo not drawn), the T/C is, setting by setting: under setting [8], 94 % of control; under setting [9], 94 % of control; under setting [10], 94 % of control; under setting [11], 96 % of control; under setting [12], 94 % of control.
In the case of `O=NN(CCCl)C(=O)NCCO`, the T/C (endpoint: mean survival time, dose: 2.5 mg/kg/injection, schedule: Q01DX001 (ip), vehicle: water) is 120 % of control; the T/C (endpoint: mean survival time, dose: 3.13 mg/kg/injection, schedule: Q01DX009 (ip), vehicle: water) is 355 % of control; the T/C (endpoint: mean survival time, dose: 5.0 mg/kg/injection, schedule: Q01DX001 (ip), vehicle: water) is 158 % of control; the T/C (endpoint: mean survival time, dose: 6.25 mg/kg/injection, schedule: Q01DX009 (ip), vehicle: water) was 242 % of control; the T/C (endpoint: mean survival time, dose: 10.0 mg/kg/injection, schedule: Q01DX001 (ip), vehicle: water) is 166 % of control and 411 % of control; the T/C (endpoint: mean survival time, dose: 12.5 mg/kg/injection, schedule: Q01DX009 (ip), vehicle: water) was 187 % of control. Besides, the T/C was 333 % of control and 491 % of control (endpoint: mean survival time, dose: 20.0 mg/kg/injection, schedule: Q01DX001 (ip), vehicle: water); 101 % of control (endpoint: mean survival time, dose: 25.0 mg/kg/injection, schedule: Q01DX009 (ip), vehicle: water); 164 % of control (endpoint: median survival time, dose: 0.75 mg/kg/injection, schedule: Q01DX009 (ip), vehicle: water); 241 % of control (endpoint: median survival time, dose: 0.78 mg/kg/injection, schedule: Q01DX009 (ip), vehicle: water); 223 % of control (endpoint: median survival time, dose: 1.5 mg/kg/injection, schedule: Q01DX009 (ip), vehicle: water); 198 % of control (endpoint: median survival time, dose: 1.56 mg/kg/injection, schedule: Q01DX009 (ip), vehicle: water). In addition, the T/C is 275 % of control (endpoint: median survival time, dose: 1.57 mg/kg/injection, schedule: Q01DX009 (ip), vehicle: water); 352 % of control (endpoint: median survival time, dose: 3.0 mg/kg/injection, schedule: Q01DX009 (ip), vehicle: water); 308 % of control (endpoint: median survival time, dose: 3.12 mg/kg/injection, schedule: Q01DX009 (ip), vehicle: water); 375 % of control (endpoint: median survival time, dose: 3.13 mg/kg/injection, schedule: Q01DX009 (ip), vehicle: water); 268 % of control (endpoint: median survival time, dose: 6.0 mg/kg/injection, schedule: Q01DX009 (ip), vehicle: water); 212 % of control and 262 % of control (endpoint: median survival time, dose: 6.25 mg/kg/injection, schedule: Q01DX009 (ip), vehicle: water). The T/C runs as follows: (endpoint: median survival time, dose: 12.0 mg/kg/injection, schedule: Q01DX009 (ip), vehicle: water) 103 % of control; (endpoint: median survival time, dose: 12.5 mg/kg/injection, schedule: Q01DX009 (ip), vehicle: water) 114 % of control and 103 % of control; (endpoint: median survival time, dose: 25.0 mg/kg/injection, schedule: Q01DX009 (ip), vehicle: water) 97 % of control.
On to `Cc1ccc(S(=O)(=O)OCCCCCOS(=O)(=O)c2ccc(C)cc2)cc1` (tested in a mixture with another compound), for which the T/C reads like this: (endpoint: mean survival time, dose: 100.0 mg/kg/injection, schedule: Q04DX002 (ip), vehicle: saline with Tween-80) 102 % of control; (endpoint: mean survival time, dose: 200.0 mg/kg/injection, schedule: Q04DX002 (ip), vehicle: saline with Tween-80) 94 % of control; (endpoint: mean survival time, dose: 400.0 mg/kg/injection, schedule: Q04DX002 (ip), vehicle: saline with Tween-80) 94 % of control.
With `O=CC(CO)OC(C=O)n1cnc2c(=O)[nH]c(=O)[nH]c21` (stereo not drawn), the T/C by setting is: under setting [2], 101 % of control; under setting [3], 106 % of control; under setting [4], 106 % of control; under setting [5], 115 % of control.
Take `CCCCCCCCCC(=O)CCCCCCC`: the T/C is, setting by setting: (endpoint: mean survival time, dose: 100.0 mg/kg/injection, schedule: Q04DX003 (ip), vehicle: other) 105 % of control; (endpoint: mean survival time, dose: 200.0 mg/kg/injection, schedule: Q04DX003 (ip), vehicle: other) 92 % of control; (endpoint: mean survival time, dose: 400.0 mg/kg/injection, schedule: Q04DX003 (ip), vehicle: other) 107 % of control.
On to `C1=CC(=C(C2CCC(Nc3ccccc3)CC2)C2CCC(Nc3ccccc3)CC2)C=CC1=Nc1ccccc1` (stereo not drawn), for which the T/C runs as follows: under setting [6], 103 % of control; under setting [7], 101 % of control; (endpoint: mean survival time, dose: 100.0 mg/kg/injection, schedule: Q04DX003 (ip), vehicle: saline) 104 % of control; under setting [13], 107 % of control; (endpoint: mean survival time, dose: 200.0 mg/kg/injection, schedule: Q04DX003 (ip), vehicle: saline) 104 % of control.
